# Test results reported in patent US20240245674A1, “DIAGNOSTIC METHODS AND COMPOSITIONS FOR TREATMENT OF CANCER” (LINNAEUS THERAPEUTICS, INC., priority 2021, published 2024).
# Legend:
# Format in all cases: in vivo, human
# [1] = system: c-Myc positive tumor cells; test: c-Myc immunohistochemistry on pre- and on-treatment tumor biopsies; settings: on-treatment biopsies 8-19 days after start vs pre-treatment; most samples
# Excerpt: Pre-treatment biopsies were collected within 28 days of initiating treatment, and on-treatment biopsies were collected 8-19 days after LNS8801 treatment began. Tumor samples were formalin-fixed, paraffin-embedded, sectioned, and assessed for c-Myc positive tumor cells by immunohistochemistry by a blinded pathologist.
# [2] = system: prolactin (systemic marker of GPER activity); test: Prolactin induction in blood of patients after LNS8801 dosing, versus best RECIST response
# Experimental: Blood was collected from patients pre-dose and at 0.5, 1, 2, 4, 7, and 10 hours after dosing and analyzed for the concentration of prolactin. Prolactin induction was calculated by dividing the average of the 4 hour through 10 hour timepoints by the average of pre-dose to 2 hour timepoints. Prolactin-induction was plotted with the best RECIST response of target lesions, and linear regression was performed.
# Blood was collected from patients pre-dose and 0.5, 1, 2, 4, 7, and 10 hours after dosing and analyzed for the concentration of prolactin (PRLX). Prolactin induction was calculated by dividing the average of the 4 hour through 10 hour timepoints by the average of pre-dose to 2 hour timepoints.
# [3] = LNS8801 pharmacokinetics in patients with advanced cancer (plasma concentration by mass spectrometry)
# Experimental: Patients with advanced cancer were dosed with 10, 40, and 125 mg of LNS8801 in a capsule on three consecutive days/week. Blood was collected from patients pre-dose and at 0.5, 1, 2, 4, 7, 10, and 24 hours after dosing. Samples were analyzed by mass spectrometry for the concentration of LNS8801. […] LNS8801 is well absorbed, producing plasma exposures that are predicted to be efficacious, even at the lowest dose evaluated. Half-life in humans is approximately 10 hours.
structure (smiles),measurement,setting,value
"CC(=O)c1ccc2c(c1)[C@@H]1C=CC[C@@H]1[C@H](c1cc3c(cc1Br)OCO3)N2 [LNS8801, 1-((3aS,4R,9bR)-4-(6-bromobenzo[d][1,3]dioxol-5-yl)-3a,4,5,9b-tetrahydro-3H-cyclopenta[c]quinolin-8-yl)ethan-1-one]",Change in c-Myc positive tumor cells after treatment,[1],dramatic depletion in c-Myc positive tumor cells
same,Patients lacking a prolactin response (<1.25-fold induction),"[2]; evaluable patients, every such patient had progressive disease",35%
same,Change in prolactin levels on treatment,[2]; patients with progressive disease under RECIST,reduction or no change in prolactin levels
same,Absorption / plasma exposure,"[3]; 10, 40, 125 mg capsule",well absorbed
same,half-life,"[3]; human, plasma, oral, humans, 10, 40, 125 mg capsule, three consecutive days/week",~10 h
